Experimental data published in patent US11965039B2, “Compstatin analogues and their medical uses” (priority 2018, dated 2024).
Positions of bridges follow the written chain, without caps; N, C: chain ends. Non-standard residues stand in square brackets, D forms with d. Residues, ends and D or L forms follow the SMILES beside them. Trp(1-Me) = Cn1cc(C[C@H](N)C(=O)O)c2ccccc21; 1Nal = N[C@@H](Cc1cccc2ccccc12)C(=O)O; 2Nal = N[C@@H](Cc1ccc2ccccc2c1)C(=O)O

How the values were obtained:
[1] = system: classical complement pathway; test: In vitro haemolysis assay (inhibition of classical complement pathway); type: cell-based, human; details: human serum, sensitized sheep red blood cells; Table 3, given as upper bounds; read-out: IC50, inhibition of hemolysis
Method in brief: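 Compound dilutions preincubated 15 min at room temperature with diluted human serum (titrated per batch for 70-90% maximal haemolysis), then antibody-sensitized sheep RBC (10^7/well) added for 30 min at 37 °C in Tris/casein buffer, pH 7.4. Stopped with EDTA; haemolysis read at 405 nm; IC50 by 4PL fit.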

[2] = Solubility test at 10 mg/mL (visual inspection and light scattering); type: physicochemical; details: for Solubility, Condition 1: Acetate pH 4; for Solubility, Condition 2: Acetate pH 5; for Solubility, Condition 3: Phosphate pH 6; for Solubility, Condition 4: Phosphate pH 7; for Solubility, Condition 5: Phosphate pH 7.5

| Compound | IC50 [1] | Solubility, Condition 1 [2] | Solubility, Condition 2 [2] | Solubility, Condition 3 [2] | Solubility, Condition 4 [2] | Solubility, Condition 5 [2] |
| --- | --- | --- | --- | --- | --- | --- |
| CC[C@H](C)[C@@H]1NC(=O)[C@@H](NC(=O)[C@H](Cc2ccc(O)cc2)NC(C)=O)CSSC[C@@H](C(=O)N[C@H](C(=O)NCC(=O)N[C@@H](C)C(=O)N[C@@H](CCC(=O)O)C(=O)N[C@@H](CO)C(N)=O)[C@@H](C)O)NC(=O)[C@H](CCCNC(=N)N)NC(=O)[C@H](Cc2c[nH]cn2)NC(=O)[C@H](CCC(=O)O)NC(=O)CNC(=O)[C@H](Cc2c[nH]c3ccccc23)NC(=O)[C@H](CC(=O)O)NC(=O)[C@H](CCC(N)=O)NC(=O)[C@H](Cc2cn(C)c3ccccc23)NC1=O [Compound 62] (Ac-YCI[Trp(1-Me)]QDWGEHRCTGAES-NH2; disulfide 2-12) | < 100 nM | − (“−” denotes lack of solubility at the given condition, as UV absorbance at 340 nm exceeds 0.1 AU and/or it is visibly turbid or contains particles) | − (“−” denotes lack of solubility at the given condition, as UV absorbance at 340 nm exceeds 0.1 AU and/or it is visibly turbid or contains particles) | + (“+” denotes solubility at the given condition, as determined by UV absorbance being less than 0.1 AU at 340 nm and the sample being clear when manually inspected) | + (“+” denotes solubility at the given condition, as determined by UV absorbance being less than 0.1 AU at 340 nm and the sample being clear when manually inspected) | + (“+” denotes solubility at the given condition, as determined by UV absorbance being less than 0.1 AU at 340 nm and the sample being clear when manually inspected) |
| CC[C@H](C)[C@@H]1NC(=O)[C@@H](NC(=O)[C@H](Cc2ccccc2)NC(C)=O)CSSC[C@@H](C(=O)N[C@H](C(=O)NCC(=O)N[C@@H](C)C(=O)N[C@@H](CCC(=O)O)C(=O)N[C@@H](CO)C(N)=O)[C@@H](C)O)NC(=O)[C@H](CCCNC(=N)N)NC(=O)[C@H](Cc2c[nH]cn2)NC(=O)[C@H](CCC(=O)O)NC(=O)CNC(=O)[C@H](Cc2c[nH]c3ccccc23)NC(=O)[C@H](CC(=O)O)NC(=O)[C@H](CCC(N)=O)NC(=O)[C@H](Cc2cccc3ccccc23)NC1=O [Compound 63] (Ac-FCI[1Nal]QDWGEHRCTGAES-NH2; disulfide 2-12) | < 100 nM | − (“−” denotes lack of solubility at the given condition, as UV absorbance at 340 nm exceeds 0.1 AU and/or it is visibly turbid or contains particles) | − (“−” denotes lack of solubility at the given condition, as UV absorbance at 340 nm exceeds 0.1 AU and/or it is visibly turbid or contains particles) | + (“+” denotes solubility at the given condition, as determined by UV absorbance being less than 0.1 AU at 340 nm and the sample being clear when manually inspected) | + (“+” denotes solubility at the given condition, as determined by UV absorbance being less than 0.1 AU at 340 nm and the sample being clear when manually inspected) | + (“+” denotes solubility at the given condition, as determined by UV absorbance being less than 0.1 AU at 340 nm and the sample being clear when manually inspected) |
| CC[C@H](C)[C@@H]1NC(=O)[C@@H](NC(=O)[C@H](Cc2ccc(O)cc2)NC(C)=O)CSSC[C@@H](C(=O)N[C@H](C(=O)NCC(=O)N[C@@H](C)C(=O)N[C@@H](CCC(=O)O)C(=O)N[C@@H](CO)C(N)=O)[C@@H](C)O)NC(=O)[C@H](CCCNC(=N)N)NC(=O)[C@H](Cc2c[nH]cn2)NC(=O)[C@H](CCC(=O)O)NC(=O)CNC(=O)[C@H](Cc2c[nH]c3ccccc23)NC(=O)[C@H](CC(=O)O)NC(=O)[C@H](CCC(N)=O)NC(=O)[C@H](Cc2ccc3ccccc3c2)NC1=O [Compound 65] (Ac-YCI[2Nal]QDWGEHRCTGAES-NH2; disulfide 2-12) | < 100 nM | − (“−” denotes lack of solubility at the given condition, as UV absorbance at 340 nm exceeds 0.1 AU and/or it is visibly turbid or contains particles) | − (“−” denotes lack of solubility at the given condition, as UV absorbance at 340 nm exceeds 0.1 AU and/or it is visibly turbid or contains particles) | + (“+” denotes solubility at the given condition, as determined by UV absorbance being less than 0.1 AU at 340 nm and the sample being clear when manually inspected) | + (“+” denotes solubility at the given condition, as determined by UV absorbance being less than 0.1 AU at 340 nm and the sample being clear when manually inspected) | + (“+” denotes solubility at the given condition, as determined by UV absorbance being less than 0.1 AU at 340 nm and the sample being clear when manually inspected) |
| CC[C@H](C)[C@@H]1NC(=O)[C@@H](NC(=O)[C@H](Cc2ccc(O)cc2)NC(C)=O)CSSC[C@@H](C(=O)N[C@H](C(=O)NCC(=O)N[C@@H](C)C(=O)N[C@@H](CCC(=O)O)C(=O)N[C@@H](CO)C(N)=O)[C@@H](C)O)NC(=O)[C@H](CCCNC(=N)N)NC(=O)[C@H](Cc2c[nH]cn2)NC(=O)[C@H](CCC(=O)O)NC(=O)CNC(=O)[C@H](Cc2c[nH]c3ccccc23)NC(=O)[C@H](CC(=O)O)NC(=O)[C@H](CCC(N)=O)NC(=O)[C@H](Cc2c[nH]c3ccccc23)NC1=O [Compound 66] (Ac-YCIWQDWGEHRCTGAES-NH2; disulfide 2-12) | < 100 nM | − (“−” denotes lack of solubility at the given condition, as UV absorbance at 340 nm exceeds 0.1 AU and/or it is visibly turbid or contains particles) | − (“−” denotes lack of solubility at the given condition, as UV absorbance at 340 nm exceeds 0.1 AU and/or it is visibly turbid or contains particles) | + (“+” denotes solubility at the given condition, as determined by UV absorbance being less than 0.1 AU at 340 nm and the sample being clear when manually inspected) | + (“+” denotes solubility at the given condition, as determined by UV absorbance being less than 0.1 AU at 340 nm and the sample being clear when manually inspected) | + (“+” denotes solubility at the given condition, as determined by UV absorbance being less than 0.1 AU at 340 nm and the sample being clear when manually inspected) |
| CC[C@H](C)[C@@H]1NC(=O)[C@@H](NC(=O)[C@H](Cc2ccccc2)NC(=O)[C@H](CCC(=O)O)NC(=O)[C@H](CO)NC(C)=O)CSSC[C@@H](C(=O)N[C@H](C(=O)NCC(=O)N[C@@H](C)C(=O)N[C@@H](CCC(=O)O)C(=O)N[C@@H](CO)C(N)=O)[C@@H](C)O)NC(=O)[C@H](CCCNC(=N)N)NC(=O)[C@H](Cc2c[nH]cn2)NC(=O)[C@H](CCC(=O)O)NC(=O)CNC(=O)[C@H](Cc2c[nH]c3ccccc23)NC(=O)[C@H](CC(=O)O)NC(=O)[C@H](CCC(N)=O)NC(=O)[C@H](Cc2cn(C)c3ccccc23)NC1=O [Compound 67] (Ac-SEFCI[Trp(1-Me)]QDWGEHRCTGAES-NH2; disulfide 4-14) | < 100 nM | − (“−” denotes lack of solubility at the given condition, as UV absorbance at 340 nm exceeds 0.1 AU and/or it is visibly turbid or contains particles) | − (“−” denotes lack of solubility at the given condition, as UV absorbance at 340 nm exceeds 0.1 AU and/or it is visibly turbid or contains particles) | + (“+” denotes solubility at the given condition, as determined by UV absorbance being less than 0.1 AU at 340 nm and the sample being clear when manually inspected) | + (“+” denotes solubility at the given condition, as determined by UV absorbance being less than 0.1 AU at 340 nm and the sample being clear when manually inspected) | + (“+” denotes solubility at the given condition, as determined by UV absorbance being less than 0.1 AU at 340 nm and the sample being clear when manually inspected) |
| CC[C@H](C)[C@@H]1NC(=O)[C@@H](NC(=O)[C@H](Cc2ccc(O)cc2)NC(C)=O)CSSC[C@@H](C(=O)N[C@H](C(=O)N[C@@H](CCC(=O)O)C(=O)N[C@@H](C)C(=O)NCC(=O)N[C@@H](CO)C(N)=O)[C@@H](C)O)NC(=O)[C@H](CCCNC(=N)N)NC(=O)[C@H](Cc2c[nH]cn2)NC(=O)[C@H](CCC(=O)O)NC(=O)CNC(=O)[C@H](Cc2c[nH]c3ccccc23)NC(=O)[C@H](CC(=O)O)NC(=O)[C@H](CCC(N)=O)NC(=O)[C@H](Cc2cn(C)c3ccccc23)NC1=O [Compound 68] (Ac-YCI[Trp(1-Me)]QDWGEHRCTEAGS-NH2; disulfide 2-12) | < 100 nM | − (“−” denotes lack of solubility at the given condition, as UV absorbance at 340 nm exceeds 0.1 AU and/or it is visibly turbid or contains particles) | − (“−” denotes lack of solubility at the given condition, as UV absorbance at 340 nm exceeds 0.1 AU and/or it is visibly turbid or contains particles) | + (“+” denotes solubility at the given condition, as determined by UV absorbance being less than 0.1 AU at 340 nm and the sample being clear when manually inspected) | + (“+” denotes solubility at the given condition, as determined by UV absorbance being less than 0.1 AU at 340 nm and the sample being clear when manually inspected) | + (“+” denotes solubility at the given condition, as determined by UV absorbance being less than 0.1 AU at 340 nm and the sample being clear when manually inspected) |
